# According to ChEMBL document CHEMBL1151038, “-Glucan biosynthesis inhibitors isolated from fungi as hyphal malformation inducer” (1993):
# Key:
# Phytophthora capsici = assay: Minimum amount required to induce hyphal malformation in Phytophthora capsici; type: functional
# Saccharomyces cerevisiae [1] = assay: In vitro inhibitory activity of Beta-1,3-glucan synthase of Saccharomyces cerevisiae at concentration of 100 ug/ml
# Saccharomyces cerevisiae [2] = assay: In vitro inhibitory activity of Beta-1,3-glucan synthase of Saccharomyces cerevisiae at concentration of 800 ug/ml
# Saccharomyces cerevisiae [3] = assay: In vitro inhibitory activity of Beta-1,3-glucan synthase of Saccharomyces cerevisiae at concentration of 200 ug/ml
# Saccharomyces cerevisiae [4] = assay: In vitro inhibitory activity of Beta-1,3-glucan synthase of Saccharomyces cerevisiae at concentration of 400 ug/ml
# Saccharomyces cerevisiae [5] = assay: In vitro inhibitory activity of Beta-1,3-glucan synthase of Saccharomyces cerevisiae at concentration of 12.5 ug/ml
# Saccharomyces cerevisiae [6] = assay: In vitro inhibitory activity of Beta-1,3-glucan synthase of Saccharomyces cerevisiae at concentration of 25 ug/ml
# Saccharomyces cerevisiae [7] = assay: In vitro inhibitory activity of Beta-1,3-glucan synthase of Saccharomyces cerevisiae at concentration of 50 ug/ml
Structure (SMILES),Activity (Phytophthora capsici) [ug disk-1],inhibition (Saccharomyces cerevisiae [1]) [%],inhibition (Saccharomyces cerevisiae [2]) [%],inhibition (Saccharomyces cerevisiae [3]) [%],inhibition (Saccharomyces cerevisiae [4]) [%],inhibition (Saccharomyces cerevisiae [5]) [%],inhibition (Saccharomyces cerevisiae [6]) [%],inhibition (Saccharomyces cerevisiae [7]) [%]
C[C@H]1C(=O)C(CO)=C[C@H](O)[C@H]1O,100,66,91,75,85,12,30,47
C[C@H]1CCC/C=C/[C@@H]2C[C@H](O)C[C@H]2[C@H](O)/C=C/C(=O)O1 [BREFELDIN A],50,0,0,0,6,0,0,0
CC(C)=C[C@H]1C[C@H](C)[C@]2(CC[C@]3(C)C[C@H]4[C@H](C(=O)C[C@@]4(C)O)/C(C=O)=C\C[C@H]32)O1 [OPHIOBOLIN A],10,74,89,79,84,31,56,56
